The values below come from publication PMC9325490, “Overcoming Multidrug Resistance (MDR): Design, Biological Evaluation and Molecular Modelling Studies of 2,4‐Substituted Quinazoline Derivatives” (Chemmedchem, 2022).

The target in data set [1] is T1, P-gp (Homo sapiens, UniProt P08183). Briefly: Calcein-AM transport inhibition in MDCK-MDR1 cells. The note with it: for EC50 P-gp: MDCK-MDR1 cells overexpressing P-gp, calcein-AM, mean ±SEM of two experiments in triplicate.
Description: (§2) The new compounds were tested for their activity toward P‐gp and the other two MDR sister proteins, MRP1 and BCRP, by measuring the inhibition of the transport of the profluorescent probe calcein‐AM (P‐gp and MRP1 substrate) in cells overexpressing P‐gp and MRP1 (MDCK‐MDR1 and MDCK‐MRP1 cells, respectively) and of the fluorescent probe Hoechst 33342 (BCRP substrate) in cells overexpressing BCRP (MDCK‐BCRP cells).
Each cell line (30,000 cells per well) was seeded into black CulturePlate 96/wells plate with 100 μL medium and allowed to become confluent overnight. 100 μL of test compounds, solubilized in culture medium, were added to monolayers, with final concentrations ranging from 0.1 to 100 μM. Thus, after a 30 min incubation time at 37 °C, calcein‐AM was added in 100 μL of Phosphate Buffered Saline (PBS) to the 96/wells plate to yield a final concentration of 2.5 μM; the plate was then incubated for 30 min. Each well was washed 3 times with ice cold PBS and saline buffer was added to each well and the plate read with Victor3 (PerkinElmer) at excitation and emission wavelengths of 485 nm and 535 nm, respectively. In these experimental conditions, calcein cell accumulation in the absence and in the presence of tested compounds was evaluated and fluorescence basal level was estimated with untreated cells. In treated wells, the increase of fluorescence with respect to basal level was measured. EC50 values were determined by fitting the fluorescence increase percentage versus log[dose].
The target in data set [2] is T1, P-gp. Briefly: ATP cell depletion (ATPlite assay) in MDCK-MDR1 cells. The note with it: Yes/No. A general note: ATP-based viability assays read luminescence as a measure of living cells.
Description: In addition, the P‐gp interacting profile of the new compounds was evaluated by the combination of the inhibition of the efflux of calcein‐AM in MDCK‐MDR1 cells test with other two assays: the apparent permeability (Papp ) determination in the Caco‐2 cell monolayer, and the ATP cell depletion in MDCK‐MDR1 cells. […] This last information is completed by the ATP cell depletion assay, which measures the total ATP cell level in the MDCK cells overexpressing only P‐gp: in this setting, the observed effect can be mainly ascribed to the overexpressed transporter.[42]
The MDCK‐MDR1 cells seeded into 96‐well microplate in 100 μL of complete medium at a density 2×10^4 cells/well were incubated overnight (O/N) in a humidified atmosphere 5 % CO2 at 37 °C. The medium was removed and 100 μL of complete medium either alone or containing different concentrations of test compounds were added. The plate was incubated for 2 h in a humidified 5 % CO2 atmosphere at 37 °C. 50 μL of mammalian cell lysis solution was added to all wells and the plate shaken for five minutes in an orbital shaker. 50 μL of substrate solution was added to all wells and the plate shaken for five minutes in an orbital shaker. The plate was dark adapted for ten minutes and the luminescence was measured.
The subject of data set [3] is P-gp. Description: Apparent permeability (Papp, BA/AB) in Caco-2 cell monolayer. The note with it: human, Caco-2, P app (BA/AB), two experiments in duplicate.
Description: Compounds displaying a BA/AB >2 but not inducing an ATP cell depletion are classified as class IIB3 substrates.[43]
Caco‐2 cells were seeded onto a Millicell assay system (Millipore), in which a cell monolayer was set in between a filter cell and a receiver plate at a density of 20000 cells/well. The culture medium was replaced every 48 h, and the cells were kept for 21 days in culture. The trans epithelial electrical resistance (TEER) of the monolayers was measured daily, before and after the experiment, by using an epithelial voltohmmeter (Millicell‐ERS). Generally, TEER values greater than 1000 Ω for a 21 day culture are considered optimal.
After 21 days of Caco‐2 cell growth, the medium was removed from the filter wells and from the receiver plate, and they were filled with fresh Hank's balanced salt solution (HBSS) buffer (Invitrogen). This procedure was repeated twice, and the plates were incubated at 37 °C for 30 min. After the incubation time, the HBSS buffer was removed, and drug solutions and reference compounds were added to the filter well at a concentration of 100 μM, whereas fresh HBSS was added to the receiver plate. The plates were incubated at 37 °C for 120 min. Afterward, samples were removed from the apical (filter well) and basolateral (receiver plate) side of the monolayer to measure the permeability. The apparent permeability (Papp ), in units of nms‐1, was calculated by using the same equation reported above.
For another data set, the system named is Caco-2 cell monolayer. Described as above. To be noted: BA/AB ratio, two experiments in duplicate.
The target of data set [4] is T1, P-gp. Description: P-gp interacting profile (combination of calcein-AM, Papp and ATP cell depletion assays). The note with it: classification from Papp, calcein-AM inhibition and ATP cell depletion.
Description: In addition, the P‐gp interacting profile of the new compounds was evaluated by the combination of the inhibition of the efflux of calcein‐AM in MDCK‐MDR1 cells test with other two assays: the apparent permeability (Papp ) determination in the Caco‐2 cell monolayer, and the ATP cell depletion in MDCK‐MDR1 cells. […] This last information is completed by the ATP cell depletion assay, which measures the total ATP cell level in the MDCK cells overexpressing only P‐gp: in this setting, the observed effect can be mainly ascribed to the overexpressed transporter.[42] […] Compounds displaying a BA/AB >2 but not inducing an ATP cell depletion are classified as class IIB3 substrates.[43]
For data set [5], the system named is HT29 cells. Description: Co-administration assay with doxorubicin (MTT) in HT29 cells. Type of data set: cell-based. How it is done: (§1) The co‐administration assay with Doxorubicin was performed in MDCK‐MDR1, HT29 and HT29/DX cells at 48 h as reported with minor modifications.[49] […] On day 2, the tested drug was added alone to the cells at different concentrations (10 nM, 100 nM, 500 nM, 1 μM, 10 μM). On day 3, the medium was removed and the drug at the same concentrations was added alone and in co‐administration with 10 μM Doxorubicin to the cells. After the established incubation time with the tested drug, MTT (0.5 mg/mL) was added to each well, and after 3–4 h incubation at 37 °C, the supernatant was removed. The formazan crystals were solubilized using 100 μL of DMSO/EtOH (1 : 1), and the absorbance values at 570 and 630 nm were determined on the microplate reader Victor 3 from PerkinElmer Life Sciences.

Data set [6] deals with HT29 cells. Briefly: Kinetic parameters of doxorubicin efflux in HT29 cells.
Description: (§3) Cells were collected and the intracellular drug content was measured fluorimetrically as detailed previously,[47] using a Synregy HTX 96‐well plate reader (Bio‐Tek Instruments, Winooski, VT). The results were expressed as nmol doxorubicin/mg cell proteins, according to a titration curve previously set. […] A second series of dishes, after the incubation with doxorubicin formulations under the same experimental conditions, were left for further 10 min at 37 °C, then washed and tested for the intracellular drug content. The difference of doxorubicin concentration between the two series, expressed as nmol doxorubicin extruded/min/mg cell protein was plotted versus the initial drugs’ concentration. Values were fitted to Michaelis‐Menten equation to calculate Vmax and Km, using the Enzfitter software (Biosoft Corporation, Cambridge, United Kingdom).[47]
In data set [7] the test system is HT29/DX cells. Briefly: Intracellular doxorubicin accumulation in HT29/DX cells.
Description: as §3
The test system of data set [8] is HT29/DX cells. Description: Kinetic parameters of doxorubicin efflux in HT29/DX cells.
Description: as §3
Data set [9] relates to HT29/DX cells. Briefly: Co-administration assay with doxorubicin (MTT) in HT29/DX cells. Type of data set: cell-based. The method, then: as §1
Data set [10] has as its system HT29 cells. Briefly: Intracellular doxorubicin accumulation in HT29 cells. To be noted: 24 h, doxorubicin 10 μM + compound 100 nM-10 μM.
Description: as §3
For the next data set, the target named is MRP1 (Homo sapiens, UniProt P33527). Briefly: cell-based.
A further data set deals with T2, BCRP (Homo sapiens, UniProt Q9UNQ0).
T2 construct: expressed in transfected cells; host or cells: MDCK-BCRP (Madin-Darby Canine Kidney, transfected); gift of Prof; P. Borst, NKI-AVL
T2 sequence (Q9UNQ0 1-655): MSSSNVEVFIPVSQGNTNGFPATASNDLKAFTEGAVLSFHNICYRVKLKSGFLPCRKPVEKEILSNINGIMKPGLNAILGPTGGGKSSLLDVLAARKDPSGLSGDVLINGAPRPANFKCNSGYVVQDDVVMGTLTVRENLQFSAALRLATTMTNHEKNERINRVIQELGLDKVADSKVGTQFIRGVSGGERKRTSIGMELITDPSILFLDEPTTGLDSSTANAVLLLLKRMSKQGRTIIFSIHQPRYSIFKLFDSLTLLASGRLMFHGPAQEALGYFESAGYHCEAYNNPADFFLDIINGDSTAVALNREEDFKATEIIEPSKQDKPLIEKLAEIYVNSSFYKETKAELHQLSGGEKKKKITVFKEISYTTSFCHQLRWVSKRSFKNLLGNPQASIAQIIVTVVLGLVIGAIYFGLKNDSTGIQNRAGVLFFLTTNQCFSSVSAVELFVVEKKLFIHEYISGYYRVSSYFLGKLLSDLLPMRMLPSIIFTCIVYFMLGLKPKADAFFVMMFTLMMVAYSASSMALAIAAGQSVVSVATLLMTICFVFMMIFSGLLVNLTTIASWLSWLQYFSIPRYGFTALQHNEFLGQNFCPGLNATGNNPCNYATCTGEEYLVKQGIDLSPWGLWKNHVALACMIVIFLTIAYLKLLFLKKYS
Description: Hoechst 33342 transport inhibition in MDCK-BCRP cells. Type of data set: cell-based. To be noted: MDCK-BCRP cells overexpressing BCRP, mean ±SEM.

The mark [11] stands for this setting: absence or presence of 10 μM compound 1 e.
Where [12] appears, read: read-out: Km of doxorubicin efflux, absence or presence of 10 μM compound 1 e.

A word on the EC50: it is the concentration needed to bring the measured effect to its halfway point. Broadly, the efflux ratio is the permeability from basolateral to apical divided by that in the opposite direction, in the common usage. For orientation: Km means the concentration of substrate that gives half-maximal velocity. What is called melting point is the temperature of the solid-liquid transition.

Each structure is given as a SMILES string. Entries after “also recorded” stand apart in the source; their conditions may differ. Some results are limits rather than exact numbers.

T1 sequence (P08183 whole entry): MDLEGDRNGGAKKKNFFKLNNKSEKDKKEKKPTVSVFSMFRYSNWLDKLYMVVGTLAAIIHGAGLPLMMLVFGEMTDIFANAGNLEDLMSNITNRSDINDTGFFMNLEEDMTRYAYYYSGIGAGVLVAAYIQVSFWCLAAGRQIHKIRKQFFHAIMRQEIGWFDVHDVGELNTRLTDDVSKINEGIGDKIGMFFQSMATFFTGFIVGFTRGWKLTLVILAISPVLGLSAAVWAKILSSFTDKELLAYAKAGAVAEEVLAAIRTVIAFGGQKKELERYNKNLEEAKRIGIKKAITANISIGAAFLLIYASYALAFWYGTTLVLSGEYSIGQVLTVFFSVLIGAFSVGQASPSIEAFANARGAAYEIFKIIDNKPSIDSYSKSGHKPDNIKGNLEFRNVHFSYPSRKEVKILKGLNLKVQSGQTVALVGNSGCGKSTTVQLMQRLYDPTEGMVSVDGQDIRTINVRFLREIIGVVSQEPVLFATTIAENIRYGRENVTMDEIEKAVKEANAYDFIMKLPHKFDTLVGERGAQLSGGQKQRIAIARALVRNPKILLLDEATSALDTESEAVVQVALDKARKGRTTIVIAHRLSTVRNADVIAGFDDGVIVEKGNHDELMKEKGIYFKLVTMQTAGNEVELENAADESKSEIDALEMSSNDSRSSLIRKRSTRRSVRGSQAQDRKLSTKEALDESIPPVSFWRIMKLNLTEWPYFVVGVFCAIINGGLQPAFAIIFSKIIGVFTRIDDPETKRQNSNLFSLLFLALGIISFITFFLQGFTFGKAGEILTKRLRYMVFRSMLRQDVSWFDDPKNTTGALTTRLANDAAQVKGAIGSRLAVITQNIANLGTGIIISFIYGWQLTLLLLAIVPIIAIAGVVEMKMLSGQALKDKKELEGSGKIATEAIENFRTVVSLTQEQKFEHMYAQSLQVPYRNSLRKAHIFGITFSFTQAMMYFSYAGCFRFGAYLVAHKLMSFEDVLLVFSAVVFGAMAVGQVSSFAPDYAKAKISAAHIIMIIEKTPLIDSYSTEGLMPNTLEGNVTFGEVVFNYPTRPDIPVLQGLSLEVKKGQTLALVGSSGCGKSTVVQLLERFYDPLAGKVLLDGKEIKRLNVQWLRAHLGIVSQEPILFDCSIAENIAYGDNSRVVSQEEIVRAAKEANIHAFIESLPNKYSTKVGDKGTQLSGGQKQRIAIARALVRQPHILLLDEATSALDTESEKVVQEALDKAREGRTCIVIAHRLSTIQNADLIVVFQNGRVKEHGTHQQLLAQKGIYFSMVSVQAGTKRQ
Sequence of MRP1 (P33527 whole entry): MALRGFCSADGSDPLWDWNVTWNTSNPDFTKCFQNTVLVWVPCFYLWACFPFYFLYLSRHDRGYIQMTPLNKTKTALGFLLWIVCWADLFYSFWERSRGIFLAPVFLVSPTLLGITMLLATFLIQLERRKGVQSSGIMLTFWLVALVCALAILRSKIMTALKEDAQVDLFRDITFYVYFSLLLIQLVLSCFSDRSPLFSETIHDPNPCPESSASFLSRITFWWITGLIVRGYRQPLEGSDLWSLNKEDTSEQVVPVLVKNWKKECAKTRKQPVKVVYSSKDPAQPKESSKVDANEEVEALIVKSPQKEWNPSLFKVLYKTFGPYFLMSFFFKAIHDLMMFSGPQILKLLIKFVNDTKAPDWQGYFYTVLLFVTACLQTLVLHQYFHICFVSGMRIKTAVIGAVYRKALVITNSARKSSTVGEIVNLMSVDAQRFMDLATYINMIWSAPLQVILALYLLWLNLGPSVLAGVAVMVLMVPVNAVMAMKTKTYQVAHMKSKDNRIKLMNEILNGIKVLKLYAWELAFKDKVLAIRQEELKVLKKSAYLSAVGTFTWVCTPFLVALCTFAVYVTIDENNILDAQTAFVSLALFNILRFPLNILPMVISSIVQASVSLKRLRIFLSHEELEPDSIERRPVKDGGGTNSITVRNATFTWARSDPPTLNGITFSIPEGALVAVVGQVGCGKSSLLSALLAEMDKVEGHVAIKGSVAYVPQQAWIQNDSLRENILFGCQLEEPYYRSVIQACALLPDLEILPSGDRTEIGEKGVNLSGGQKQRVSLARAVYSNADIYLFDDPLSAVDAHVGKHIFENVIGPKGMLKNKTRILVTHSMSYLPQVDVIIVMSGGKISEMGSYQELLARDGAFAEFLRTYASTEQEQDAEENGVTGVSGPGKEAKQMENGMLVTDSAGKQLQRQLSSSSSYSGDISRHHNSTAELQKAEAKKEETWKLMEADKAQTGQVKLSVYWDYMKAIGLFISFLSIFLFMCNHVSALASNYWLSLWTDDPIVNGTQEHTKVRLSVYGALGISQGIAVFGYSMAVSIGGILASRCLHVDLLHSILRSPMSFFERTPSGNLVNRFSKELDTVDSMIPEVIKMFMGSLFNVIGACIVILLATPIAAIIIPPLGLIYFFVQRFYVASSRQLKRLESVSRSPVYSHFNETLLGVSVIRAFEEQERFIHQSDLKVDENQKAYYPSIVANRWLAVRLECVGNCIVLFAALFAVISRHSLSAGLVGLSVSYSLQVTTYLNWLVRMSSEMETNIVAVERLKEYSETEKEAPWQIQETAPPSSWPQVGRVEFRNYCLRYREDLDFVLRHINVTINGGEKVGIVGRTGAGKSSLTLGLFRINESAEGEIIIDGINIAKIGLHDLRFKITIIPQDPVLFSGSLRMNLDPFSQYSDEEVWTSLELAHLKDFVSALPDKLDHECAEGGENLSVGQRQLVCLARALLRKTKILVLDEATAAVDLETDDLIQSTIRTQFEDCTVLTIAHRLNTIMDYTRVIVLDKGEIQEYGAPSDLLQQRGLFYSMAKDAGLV
Description for BCRP: Each cell line (30,000 cells per well) was seeded into black CulturePlate 96/wells plate with 100 μL medium and allowed to become confluent overnight. 100 μL of test compounds, solubilized in culture medium, were added to monolayers, with final concentrations ranging from 0.1 to 100 μM. After 30 min incubation time at 37 °C, Hoechst 33342 was added in 100 μL of Phosphate Buffered Saline (PBS) to yield a final concentration of 8 μM to the 96/wells plate and the plate incubated for 30 min. The supernatants were drained and the cells were fixed for 20 min under light protection using 100 μL per well of a 4 % PFA solution. Each well was washed 3 times with ice cold PBS and saline buffer added to each well and the plate read with Victor3 (PerkinElmer) at excitation and emission wavelengths of 340/35 nm and 485/20 nm, respectively. In these experimental conditions, Hoechst 33342 accumulation in the absence and in the presence of tested compounds was evaluated and fluorescence basal level was estimated with untreated cells. In treated wells the increase of fluorescence with respect to basal level was measured. EC50 values were determined by fitting the fluorescence increase percentage versus log[dose].
Description for MRP1: as §2
Each cell line (30,000 cells per well) was seeded into black CulturePlate 96/wells plate with 100 μL medium and allowed to become confluent overnight. 100 μL of test compounds, solubilized in culture medium, were added to monolayers, with final concentrations ranging from 0.1 to 100 μM. […] Each well was washed 3 times with ice cold PBS and saline buffer was added to each well and the plate read with Victor3 (PerkinElmer) at excitation and emission wavelengths of 485 nm and 535 nm, respectively. In these experimental conditions, calcein cell accumulation in the absence and in the presence of tested compounds was evaluated and fluorescence basal level was estimated with untreated cells. In treated wells, the increase of fluorescence with respect to basal level was measured. EC50 values were determined by fitting the fluorescence increase percentage versus log[dose].

With `COc1ccc(C(c2ccc(OC)cc2)c2nc(Nc3ccc(CCN4CCc5cc(OC)c(OC)cc5C4)cc3)c3ccccc3n2)cc1` [Compound 7 a, 2‐(Bis(4‐methoxyphenyl)methyl)‐N‐(4‐(2‐(6,7‐dimethoxy‐3,4‐dihydroisoquinolin‐2(1H)‐yl)ethyl)phenyl)quinazolin‐4‐amine], the EC50 on P-gp [1] was 110 ± 20 nM. For the same compound, the ATP cell depletion result at P-gp [2] was “No”. Moreover, the efflux ratio at 120 min, 100 μM with P-gp [3] came to 32.9.
Take `COc1cc2c(cc1OC)CN(CCc1ccc(NC(=O)c3cccc4c(=O)c5cccc(OC)c5[nH]c34)cc1)CC2` [elacr, elacridar, reference compound]: on P-gp [2], the ATP cell depletion result was “Yes^[e]”.
Regarding `COc1ccc2ccccc2c1-c1nc(N2CCN(C)CC2)c2ccccc2n1` [Compound 5 d, 2‐(2‐Methoxynaphthalen‐1‐yl)‐4‐(4‐methylpiperazin‐1‐yl)quinazoline], the EC50 on P-gp [1] was 6060 ± 1200 nM. In addition, the ATP cell depletion entry on P-gp [2] was “No”. For the same compound, in the data set on P-gp [3], the efflux ratio at 120 min, 100 μM was 5.4.
As to `COc1cc2c(cc1OC)CN(CCc1ccc(NC(=O)c3cc(OC)c(OC)cc3NC(=O)c3cnc4ccccc4c3)cc1)CC2` [tariq, tariquidar, reference compound], on P-gp [2], the ATP cell depletion entry was “Yes^[d]”. Also, in the data set on P-gp [3], the efflux ratio at 120 min, 100 μM is above 20.
For the compound `COc1cc2c(cc1OC)CN(c1nc(-c3c4ccccc4cc4ccccc34)nc3ccccc13)CC2` [Compound 3 e, 2‐(Anthracen‐9‐yl)‐4‐(6,7‐dimethoxy‐3,4‐dihydroisoquinolin‐2(1H)‐yl)quinazoline], on P-gp [1], the half-maximal effective concentration (EC50) was 1140 ± 200 nM. The ATP cell depletion result at P-gp [2] is given as “No”. Besides, the efflux ratio at 120 min, 100 μM in the data set with P-gp [3] stood at 18.5.
As for `COc1ccc(C(c2ccc(OC)cc2)c2nc(N3CCOCC3)c3ccccc3n2)cc1` [Compound 7 c], at P-gp [1], the 50% effective concentration (EC50) was 2130 ± 400 nM. Further, on P-gp [2], the ATP cell depletion result is “do not inducing ATP cell depletion and No”. In addition, the “P app (BA/AB)” value in the data set on Caco-2 cell monolayer came out at 1.5. The efflux ratio at 120 min, 100 μM in the data set on P-gp [3] was below 2. For the same compound, the P-gp interacting profile result on P-gp [4] was “P‐gp inhibitor; also recorded: pure inhibitor”.
For the compound `COc1cccc2c1C(=O)c1c(O)c3c(c(O)c1C2=O)C[C@@](O)(C(=O)CO)C[C@@H]3O[C@H]1C[C@H](N)[C@H](O)[C@H](C)O1` [Doxo, doxorubicin], the “viable cells, doxorubicin alone” value in the data set on HT29 cells [5] (HT29 cells, doxorubicin 10 μM) was “significant decrease in viable cells”. The “Vmax of doxorubicin efflux” value was found to be 3.15 ± 0.07 µmol/min in the data set with HT29 cells [6] (setting [11]) and 8.05 ± 0.64 µmol/min in the data set with HT29/DX cells [8] (setting [11]). In addition, the Km in the data set on HT29 cells [6] (setting [12]) is 0.53 ± 0.06 µM; in the data set on HT29/DX cells [8] (setting [12]), 0.52 ± 0.06 µM. Besides, the “intracellular doxorubicin retained, doxorubicin alone” value in the data set with HT29/DX cells [7] (HT29/DX cells compared with HT29 cells) is “retained a lower amount of doxorubicin”.
Turning to `COc1ccc(-c2nc(N3CCOCC3)c3ccccc3n2)c(OC)c1OC` [Compound 4 c, 4‐(2‐(2,3,4‐Trimethoxyphenyl)quinazolin‐4‐yl)morpholine], at P-gp [1], the concentration for a half-maximal effect (EC50) was 9550 ± 1800 nM. Moreover, the ATP cell depletion result at P-gp [2] is “No”. Further, the efflux ratio at 120 min, 100 μM in the data set with P-gp [3] was determined as 3.8.
In the case of `c1ccc2c(-c3nc(N4CCOCC4)c4ccccc4n3)c3ccccc3cc2c1` [Compound 3 c, 4‐(2‐(Anthracen‐9‐yl)quinazolin‐4‐yl)morpholine], the “EC50 P-gp” value at P-gp [1] is “not active”. For the same compound, the efflux ratio at 120 min, 100 μM with P-gp [3] was 20.
As to `COc1cc2c(cc1OC)CN(c1nc(/C=C/c3cc(OC)c(OC)c(OC)c3)nc3ccccc13)CC2` [Compound 1 e, (E)‐4‐(6,7‐Dimethoxy‐3,4‐dihydroisoquinolin‐2(1H)‐yl)‐2‐(3,4,5‐trimethoxystyryl)quinazoline], the “cell viability, compound alone” value with HT29 cells [5] (HT29 (doxorubicin-sensitive) cells) and in the data set on HT29/DX cells [9] (HT29/DX (doxorubicin-resistant) cells) was “did not significantly reduce cell viability” throughout. The “viability with doxorubicin co-administration” value in the data set with HT29/DX cells [9] (HT29/DX cells, doxorubicin 10 μM + compound 10 μM) was “reduced at the same extent of doxorubicin‐sensitive cells”. The “effect on intracellular doxorubicin content” value is recorded as “did not modify the intracellular drug content” in the data set with HT29 cells [10] and “progressively increased it” in the data set on HT29/DX cells [7] (HT29/DX cells, 24 h, doxorubicin 10 μM + compound 100 nM-10 μM).
For `COc1ccc(-c2nc(NCCc3ccccc3)c3ccccc3n2)c(OC)c1OC` [Compound 4 b, N‐Phenethyl‐2‐(2,3,4‐trimethoxyphenyl)quinazolin‐4‐amine], the concentration giving a half-maximal response (EC50) on MRP1 was 52000 ± 10100 nM; on P-gp [1] it was 1410 ± 250 nM. Besides, the ATP cell depletion result on P-gp [2] is recorded as “No”. In addition, the efflux ratio at 120 min, 100 μM in the data set on P-gp [3] was 14.8.
In the case of `COc1ccc(C(c2ccc(OC)cc2)c2nc(N3CCN(C)CC3)c3ccccc3n2)cc1` [Compound 7 d, 2‐(Bis(4‐methoxyphenyl)methyl)‐4‐(4‐methylpiperazin‐1‐yl)quinazoline], the EC50 was 8620 ± 1600 nM at BCRP, 43200 ± 8500 nM at MRP1 and 960 ± 180 nM at P-gp [1]. The ATP cell depletion entry at P-gp [2] is “No”. Also, the efflux ratio at 120 min, 100 μM in the data set on P-gp [3] is 6.9.
Consider `COc1cc2c(cc1OC)CN(CCc1ccc(Nc3nc(-c4c(OC)c(OC)cc5ccccc45)nc4ccccc34)cc1)CC2` [Compound 6 a, N‐(4‐(2‐(6,7‐Dimethoxy‐3,4‐dihydroisoquinolin‐2(1H)‐yl)ethyl)phenyl)‐2‐(2,3‐dimethoxynaphthalen‐1‐yl)quinazolin‐4‐amine], for which the EC50 at P-gp [1] is 200 ± 40 nM. Also, the ATP cell depletion result on P-gp [2] is listed as “No”. In addition, the efflux ratio at 120 min, 100 μM with P-gp [3] came to 19.2.
For `COc1ccc(C(c2ccc(OC)cc2)c2nc(N3CCc4cc(OC)c(OC)cc4C3)c3ccccc3n2)cc1` [Compound 7 e, 2‐(Bis(4‐methoxyphenyl)methyl)‐4‐(6,7‐dimethoxy‐3,4‐dihydroisoquinolin‐2(1H)‐yl)quinazoline], in that order: 160 ± 26 nM, “No” and 8.4.
Consider `c1ccc(CCNc2nc(-c3c4ccccc4cc4ccccc34)nc3ccccc23)cc1` [Compound 3 b, 2‐(Anthracen‐9‐yl)‐N‐phenethylquinazolin‐4‐amine], for which the melting point was 236 to 238 °C (dec.). Besides, the “EC50 P-gp” value on P-gp [1] is reported as “not active”. Also, the efflux ratio at 120 min, 100 μM in the data set with P-gp [3] was determined as 10.5.
